Target: T1, C-C chemokine receptor type 9 (Homo sapiens, UniProt P51686)
T1 sequence (P51686 whole entry): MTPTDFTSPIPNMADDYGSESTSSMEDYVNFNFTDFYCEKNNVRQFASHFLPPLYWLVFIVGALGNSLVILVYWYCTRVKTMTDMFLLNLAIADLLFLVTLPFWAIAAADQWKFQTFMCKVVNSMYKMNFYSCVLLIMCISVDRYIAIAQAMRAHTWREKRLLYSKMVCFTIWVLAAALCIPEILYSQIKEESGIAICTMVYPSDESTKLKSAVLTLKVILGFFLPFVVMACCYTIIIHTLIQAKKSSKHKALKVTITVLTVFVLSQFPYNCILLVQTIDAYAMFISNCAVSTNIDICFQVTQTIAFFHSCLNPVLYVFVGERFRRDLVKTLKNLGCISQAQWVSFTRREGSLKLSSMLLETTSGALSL
Test: FLIPR Assay: A calcium flux assay was used to determine the ability of the compounds to interfere with the binding between CCR9 and its chemokine ligand (TECK) in Chem1-hCCR9 overexpressing cells. hCCR9 overexpressing cells were seeded (25,000 cells/well) into black Poly-D-Lysine coated clear bottom 96-well plates (BD Biosciences, Cat #356640) and incubated overnight at 37° C./5% CO2 in a humidified incubator. Media was aspirated and cells washed twice with 100 μL assay buffer (1×HBSS, 20 mM HEPES) containing 2.5 mM Probenecid. A 0.3× Fluo-4 NW calcium dye was prepared in assay buffer containing 5 mM Probenecid and stored in the dark. Each well was loaded with 100 μL of 0.3× Fluo-4 NW calcium dye and incubated at 37° C./5% CO2 for 60 minutes and then at room temperature for 30 minutes. A half-log serially diluted concentration response curve was prepared at a 3× final assay concentration for each compound (10 μM-0.1 nM final assay concentration) and 50 μL of the compound then transferred to the cells (150 μL final volume) for 60 minutes prior to stimulation (30 minutes at 37° C./5% CO2 and 30 minutes at room temperature). TECK was diluted to 4× its EC80 in assay buffer (containing 0.1% [w/v] bovine serum albumin [BSA]) and 50 μL dispensed through the fluorometric imaging plate reader (FLIPR) instrument to stimulate the cells (200 μL final volume). […]
Format: cell-based

Ki: 84 nM
SMILES: CC(C)(C)c1ccc(S(=O)(=O)Nc2ccc(C#N)c3c2C(=O)N(Cc2ccc[n+]([O-])c2)C3=O)cc1

Source: ChEMBL document CHEMBL5727027, “Compounds useful as CCR9 modulators” (2018)
